Where “and” joins values, the source holds several entries; their conditions need not be identical. Equal entries are not always repeated. Toxic doses and inconclusive results are not listed. Rule for the calls: active = survival T/C of 150% or more; inactive = T/C below 125% in these data.
System: P388 leukemia ip, CD2F1 mice, survival T/C
Assay: NCI In Vivo Anticancer Drug Screen. Data for tumor model P388 Leukemia (intraperitoneal) in CD2F1 (CDF1) mice
Settings: endpoint: median survival time, higher = longer survival
Method in brief: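 Mice carrying the transplanted tumor received test compound or vehicle. Survival was recorded in each group, and the value is the treated-group measurement divided by that of the vehicle-treated control group.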

[1] = dose: 50.0 mg/kg/injection, schedule: Q01DX009 (ip), vehicle: Klucel (hydroxypropylcellulose) (HPC)
[2] = dose: 100.0 mg/kg/injection, schedule: Q01DX009 (ip), vehicle: Klucel (hydroxypropylcellulose) (HPC)
[3] = dose: 200.0 mg/kg/injection, schedule: Q01DX009 (ip), vehicle: Klucel (hydroxypropylcellulose) (HPC)
[4] = dose: 12.5 mg/kg/injection, schedule: Q01DX009 (ip), vehicle: Klucel (hydroxypropylcellulose) (HPC)
[5] = dose: 25.0 mg/kg/injection, schedule: Q01DX009 (ip), vehicle: Klucel (hydroxypropylcellulose) (HPC)
[6] = dose: 50.0 mg/kg/injection, schedule: Q01DX005 (ip), vehicle: saline
[7] = dose: 100.0 mg/kg/injection, schedule: Q01DX005 (ip), vehicle: saline
[8] = dose: 200.0 mg/kg/injection, schedule: Q01DX005 (ip), vehicle: saline
[9] = dose: 50.0 mg/kg/injection, schedule: Q01DX005 (ip), vehicle: saline with Tween-80
[10] = dose: 100.0 mg/kg/injection, schedule: Q01DX005 (ip), vehicle: saline with Tween-80
[11] = dose: 200.0 mg/kg/injection, schedule: Q01DX005 (ip), vehicle: saline with Tween-80
[12] = dose: 60.0 mg/kg/injection, schedule: Q01DX005 (ip), vehicle: saline with Tween-80
[13] = dose: 120.0 mg/kg/injection, schedule: Q01DX005 (ip), vehicle: saline with Tween-80

Measured: T/C

COc1cc([C@H]2c3cc(O)c(OC)cc3C[C@]3(O)[C@@H]2CO[C@@H]3O)ccc1O
inactive: dose: 4.75 mg/kg/injection, schedule: Q01DX005 (ip), vehicle: saline with Tween-80 104 % of control | dose: 9.5 mg/kg/injection, schedule: Q01DX005 (ip), vehicle: saline with Tween-80 95 % of control | dose: 19.0 mg/kg/injection, schedule: Q01DX005 (ip), vehicle: saline with Tween-80 96 % of control | dose: 38.0 mg/kg/injection, schedule: Q01DX005 (ip), vehicle: saline with Tween-80 99 % of control

COc1ccc(C(Nc2ncccn2)c2cc(C(C)(C)C)cc(C(C)(C)C)c2O)cc1 (centres undefined)
inactive: dose: 50.0 mg/kg/injection, schedule: Q01DX005 (ip), vehicle: distilled water + alcohol 101 % of control | dose: 100.0 mg/kg/injection, schedule: Q01DX005 (ip), vehicle: distilled water + alcohol 101 % of control | dose: 200.0 mg/kg/injection, schedule: Q01DX005 (ip), vehicle: distilled water + alcohol 97 % of control

Nc1nc(-c2ccccc2)c(-c2ccccc2)n1C(=O)NCCCl
inactive: dose: 12.5 mg/kg/injection, schedule: Q04DX002 (ip), vehicle: saline with Tween-80 114 % of control | dose: 25.0 mg/kg/injection, schedule: Q04DX002 (ip), vehicle: saline with Tween-80 113 % of control | dose: 50.0 mg/kg/injection, schedule: Q04DX002 (ip), vehicle: saline with Tween-80 113 % of control

C/C=C/C=C/C(=O)Nc1ncc([N+](=O)[O-])s1
inactive: [1] 103 % of control | [2] 104 % of control | [3] 109 % of control

C[As](C)SCC(N)C(=O)O (centres undefined)
inactive: [4] 107 % of control | [5] 106 % of control | [1] 103 % of control and 110 % of control

Cn1cccc1/C=N/N1CC(=O)N(c2cccc(C(F)(F)F)c2)CC1=O
inactive: dose: 6.25 mg/kg/injection, schedule: Q01DX005 (ip), vehicle: saline with Tween-80 98 % of control | dose: 12.5 mg/kg/injection, schedule: Q01DX005 (ip), vehicle: saline with Tween-80 100 % of control

Cc1c(O)c(=O)ccn1CCCl
inactive: [6] 104 % of control and 107 % of control | [7] 106 % of control and 107 % of control | [8] 109 % of control and 116 % of control

CC(=O)C1OC1c1ccccn1 (centres undefined)
inactive: dose: 25.0 mg/kg/injection, schedule: Q01DX005 (ip), vehicle: saline 102 % of control | dose: 25.0 mg/kg/injection, schedule: Q01DX005 (ip), vehicle: suspension in saline 103 % of control | [6] 102 % of control | dose: 50.0 mg/kg/injection, schedule: Q01DX005 (ip), vehicle: suspension in saline 100 % of control | [7] 104 % of control | dose: 100.0 mg/kg/injection, schedule: Q01DX005 (ip), vehicle: suspension in saline 110 % of control | [8] 102 % of control | dose: 200.0 mg/kg/injection, schedule: Q01DX005 (ip), vehicle: suspension in saline 100 % of control

Nc1ncnc2c1ncn2C1OC(CO)C(O)C1N (centres undefined)
inactive: dose: 50.0 mg/kg/injection, schedule: Q04DX002 (ip), vehicle: saline 106 % of control | dose: 100.0 mg/kg/injection, schedule: Q04DX002 (ip), vehicle: saline 110 % of control | dose: 200.0 mg/kg/injection, schedule: Q04DX002 (ip), vehicle: saline 112 % of control

Cc1cccc(/C=N/Nc2cc(C)c3cccc(C)c3n2)n1
inactive: [9] 100 % of control | [10] 89 % of control | [11] 88 % of control

CC#CC#C/C=C1/C=CC2(CC=CO2)O1 (centres undefined)
inactive: [4] 107 % of control | [5] 106 % of control | [1] 111 % of control | [2] 114 % of control

CCCCC(CCCCCC(CCCC)NCc1ccc2c(c1)OCO2)NCc1ccc2c(c1)OCO2 (centres undefined)
inactive: dose: 3.12 mg/kg/injection, schedule: Q01DX009 (ip), vehicle: Klucel (hydroxypropylcellulose) (HPC) 102 % of control | dose: 6.25 mg/kg/injection, schedule: Q01DX009 (ip), vehicle: Klucel (hydroxypropylcellulose) (HPC) 97 % of control | [4] 100 % of control and 112 % of control

CC(C)CC(=O)CC(=O)C(C)(C)C.CC(C)CC(=O)CC(=O)C(C)(C)C.CC(C)CC(=O)CC(=O)C(C)(C)C.CC(C)CC(=O)CC(=O)C(C)(C)C.[Ce]
inactive: dose: 50.0 mg/kg/injection, schedule: Q01DX009 (ip), vehicle: distilled water + alcohol 106 % of control | dose: 100.0 mg/kg/injection, schedule: Q01DX009 (ip), vehicle: distilled water + alcohol 103 % of control | dose: 200.0 mg/kg/injection, schedule: Q01DX009 (ip), vehicle: distilled water + alcohol 106 % of control

CC(C)(C)C(=O)CC(=O)C(F)(F)C(F)(F)C(F)(F)F.CC(C)(C)C(=O)CC(=O)C(F)(F)C(F)(F)C(F)(F)F.CC(C)(C)C(=O)CC(=O)C(F)(F)C(F)(F)C(F)(F)F.[Er]
inactive: [2] 97 % of control | [3] 95 % of control | dose: 400.0 mg/kg/injection, schedule: Q01DX009 (ip), vehicle: Klucel (hydroxypropylcellulose) (HPC) 112 % of control

COC(=O)C1CCCCOCCOCCOCCOCCOCCCCCC1=O (centres undefined)
inactive: [9] 102 % of control | [10] 102 % of control | [11] 94 % of control

O=C(NC(Cc1ccccc1)C(=O)O)c1cccnc1 (centres undefined)
inactive: dose: 25.0 mg/kg/injection, schedule: Q04DX002 (ip), vehicle: Klucel (hydroxypropylcellulose) (HPC) 100 % of control | dose: 52.0 mg/kg/injection, schedule: Q04DX002 (ip), vehicle: Klucel (hydroxypropylcellulose) (HPC) 102 % of control | dose: 100.0 mg/kg/injection, schedule: Q04DX002 (ip), vehicle: Klucel (hydroxypropylcellulose) (HPC) 96 % of control | dose: 200.0 mg/kg/injection, schedule: Q04DX002 (ip), vehicle: Klucel (hydroxypropylcellulose) (HPC) 100 % of control

CC(C(=O)O)c1ccc(C(=O)c2cccs2)cc1 (centres undefined)
inactive: dose: 50.0 mg/kg/injection, schedule: Q01DX009 (ip), vehicle: saline with Tween-80 97 % of control | dose: 100.0 mg/kg/injection, schedule: Q01DX009 (ip), vehicle: saline with Tween-80 97 % of control | dose: 200.0 mg/kg/injection, schedule: Q01DX009 (ip), vehicle: saline with Tween-80 97 % of control

COc1ccc(S(=O)(=O)NC(=O)c2ccccc2)cc1
inactive: dose: 50.0 mg/kg/injection, schedule: Q04DX003 (ip), vehicle: saline 103 % of control | dose: 100.0 mg/kg/injection, schedule: Q04DX003 (ip), vehicle: saline 106 % of control and 97 % of control | dose: 200.0 mg/kg/injection, schedule: Q04DX003 (ip), vehicle: saline 98 % of control and 104 % of control | dose: 400.0 mg/kg/injection, schedule: Q04DX003 (ip), vehicle: saline 101 % of control

COc1cc2c(cc1OC)C1N(CC2)C(=O)NC1(C)C (centres undefined)
inactive: [12] 97 % of control | [13] 103 % of control | dose: 240.0 mg/kg/injection, schedule: Q01DX005 (ip), vehicle: saline with Tween-80 98 % of control

O=c1oc2c(Br)cccc2cc1-c1ccc(Br)c2ccccc12
inactive: [1] 101 % of control | [2] 97 % of control | [3] 93 % of control

Cc1cc(C)c2c(c1)CC(C)(C)C(=O)OC2=O
inactive: [12] 107 % of control | [13] 101 % of control

CC(C)NC(=O)OCc1ncn(-c2ccccc2)c1COC(=O)NC(C)C
inactive: dose: 12.5 mg/kg/injection, schedule: Q01DX005 (ip), vehicle: Klucel (hydroxypropylcellulose) (HPC) 103 % of control | dose: 25.0 mg/kg/injection, schedule: Q01DX005 (ip), vehicle: Klucel (hydroxypropylcellulose) (HPC) 103 % of control | dose: 50.0 mg/kg/injection, schedule: Q01DX005 (ip), vehicle: Klucel (hydroxypropylcellulose) (HPC) 87 % of control and 97 % of control | dose: 100.0 mg/kg/injection, schedule: Q01DX005 (ip), vehicle: Klucel (hydroxypropylcellulose) (HPC) 87 % of control and 91 % of control

Source: PubChem BioAssay AID330 (DTP/NCI, 2004)
